Results taken from the NIST ThermoML archive (doi:10.1016/j.fluid.2011.07.014).

Settings: Liquid, Ebulliometric method (Recirculating still)

CC(C)=C(C)C [2,3-dimethyl-2-butene]
Settings | vapor or sublimation pressure [kPa]
336.5 K | 73.5
338.2 K | 77.5
340.6 K | 84.2
342.65 K | 90.2
344.2 K | 94.7
346.24 K | 101.2
347.65 K | 105.3
350.1 K | 113.9
353.46 K | 125.5
355.35 K | 133.3
357.22 K | 140.4
362.8 K | 164.8
365.76 K | 179.5
368.05 K | 190.9
370.36 K | 202.8
373.18 K | 218.8
375.2 K | 230.4
376.5 K | 238.5
379.15 K | 255.1
381.62 K | 271.2
383.05 K | 281.3
384.7 K | 292.1
386.65 K | 306.8
388.2 K | 318.4
